Series [1] concerns PC3 prostate cancer cells. The series can be described thus: Tumorigenicity of efavirenz-pretreated PC3 cells inoculated in nude mice. Type of series: in vivo. The method, then: (§1) Controls were injected with 50% DMSO.
We also investigated whether pretreatment of transformed cells with efavirenz would modify the tumorigenic potential of derived xenografts. PC3 prostate cancer cells were cultured with 20 μM efavirenz for two 96 h-cycles, a time that was sufficient for induction of the PSA and AR genes (FIG. 3B), and subsequently inoculated in nude mice.
Untreated cells were inoculated in parallel batches of animals. Efavirenz-pretreated, or untreated, PC3 cell xenografts were then either continuously treated with efavirenz in vivo or were left untreated. […] As summarized in FIG. 6 B, efavirenz-pretreated PC3 cells developed slowly-growing xenografts in 65% of the inoculated animals, compared to 100% using untreated cells. […] Thus, efavirenz attenuates the tumorigenic potential of transformed cells.

For another series, the system named is endogenous RT. The conditions noted are these: non-infected cells in vitro (ref. 19); cited from earlier work.
In a further series the test system is A-375 melanoma cells. The series can be described thus: Morphological differentiation (phase contrast, SEM, confocal microscopy). It is filed as cell-based, Human. The conditions noted are these: compared to DMSO-treated controls. The protocol:
(§2) A-375 and TVM-A12 cells were fixed with 4% para-formaldehyde for 10 min and permeabilized in 0.2% Triton-X 100 in PBS for 5 min. […] Confocal sections were taken at 0.5-1 μm intervals. A-375 and TVM-A12 cells were fixed in 2.5% glutaraldehyde in 0.1 M Millonig's phosphate buffer. After washing, cells were post-fixed with 1% OsO4 (1 h, 4° C.) in MPB and dehydrated using increasing acetone concentrations. Samples were critical-point dried using liquid CO2 and sputter-coated with gold before examination on a Stereoscan 240 scanning electron microscope (Cambridge Instr., Cambridge, UK).

A further series concerns A-375 melanoma. The experiment in a line: Cell growth under prolonged exposure to RT inhibitors. Type of series: cell-based, Human. To be noted: for reversibility of growth inhibition: after removal of RT inhibitors, within one or two 96 h-cycles; for cell growth: nevirapine 350 μM, efavirenz 15 μM, five 96 h-cycles. The method, then: (§3) Human A-375 melanoma (ATCC-CRL-1619), TVM-A12 primary melanoma-derived (20), HT29 adenocarcinoma (ATCC HTB-38), H69 small cell lung carcinoma (SCLC) (ATCC HTB119), and PC3 prostate carcinoma (ATCC CRL-1435) cell lines were seeded in six-well plates at a density of 10^4 to 5×10^4 cells/well and cultured in DMEM or RPMI1640 medium with 10% fetal bovine serum. Nevirapine and Efavirenz were purified from commercially available Viramune (Boehringer-Ingelheim) and Sustiva (Bristol-Myers Squibb) as described (18). The drugs were made 350 and 15 μM in dimethyl sulfoxide (DMSO, Sigma-Aldrich), respectively, and added to cells 5 h after seeding; the same DMSO volume (0.2% final concentration) was added to controls. Fresh RT inhibitor-containing medium was changed every 48 h. Cells were harvested every 96 h, counted in a Burker chamber (two countings/sample) and replated at the same density.

For series [2], the system named is TVM-A12 primary melanoma-derived cell line. The series is described as above. It is filed as cell-based, Human. To be noted: for reversibility of growth inhibition: after removal of RT inhibitors, within one or two 96 h-cycles; for cell growth: nevirapine 350 μM, efavirenz 15 μM, five 96 h-cycles. The protocol:
as §3

The subject of another series is PC3 prostate carcinoma. Described as above. It is filed as cell-based, Human. To be noted: for reversibility of growth inhibition: after removal of RT inhibitors, within one or two 96 h-cycles; for cell growth: nevirapine 350 μM, efavirenz 15 μM, five 96 h-cycles. The method, then: as §3
Series [3] in a line: Preliminary in vivo assays of RT inhibitors.
Series [4] relates to E-cadherin, c-myc, bcl-2 and cyclin D1 genes in A-375 melanoma cells. The series can be described thus: Gene expression by semiquantitative RT-PCR in RT-inhibited cultures. It is filed as cell-based, Human. The conditions noted are these: four cycles, compared to controls. The method, then:
Each oligo pair was used in sequential amplification series with increasing numbers (25 to 40) of cycles. PCR products were electrophoresed, transferred to membranes and hybridized for 16 h at 42 C.° with [^32P]γ-ATP end-labelled internal oligonucleotides. The intensity of the amplification signal was measured by densitometry in at least three independent experiments for each gene. [table] […] This was investigated in semiquantitative RT-PCR analysis of cultures treated with DMSO only, or nevirapine or efavirenz for four cycles. In A-375 melanoma cells, we focussed on a set of four genes: the E-cadherin gene, involved in cell-cell adhesion and expressed in differentiated but not in tumor cells (24); and the c-myc, bcl-2 (25) and cyclin D1 (26) genes, which are directly implicated in melanoma cell proliferation and tumor growth.

How the values of series [5] were obtained: Five-week old athymic nude mice (Harlan, Italy), kept in accordance with the European Union guidelines, were inoculated sub-cutaneously with A-375 melanoma (4×10^6), H-69 (10^7), PC3 (2×10^6) and HT-29 (10^6) cells in 100 μl PBS. […] Controls were injected with 50% DMSO. Treatment started one day or one week after tumor implant, and, in some experiments, was discontinued after 14 days. Tumor growth was monitored every other day by caliper measurements; volumes were calculated using the formula: […]
Cells were inoculated subcutaneously in the limb of athymic nude mice.

The next series deals with PC3 xenograft. The experiment in a line: Human tumor xenograft growth in athymic nude mice. It is filed as in vivo. The protocol:
as §1
A general note: Xenograft models place foreign cells or tissue in a host animal.

The subject of another series is HT29 colon xenograft. The experiment in a line: Human tumor xenograft growth in athymic nude mice. Type of series: in vivo. The protocol:
as §1

Series [6] concerns H69 small cell lung carcinoma xenograft. The experiment in a line: Human tumor xenograft growth in athymic nude mice. Type of series: in vivo. To be noted: 20 mg/kg s.c. daily five days a week, start one day or one week after inoculation; vs untreated. The protocol:
as §1

The next series has as its system A-375 melanoma xenograft. The series can be described thus: Human tumor xenograft growth in athymic nude mice. Type of series: in vivo. The conditions noted are these: 20 mg/kg s.c. daily five days a week, start one day or one week after inoculation; vs untreated. The protocol: as §1
The test system of a further series is primary TVM-A12 cells. The experiment in a line: Morphological differentiation (phase contrast, SEM, confocal microscopy). It is filed as cell-based, Human. To be noted: compared to untreated cells. The method, then:
as §2

The mark [7] stands for this setting: 20 mg/kg s.c. daily five days a week, start one day or one week after inoculation, vs untreated.
The mark [8] stands for this setting: treated from day one, treatment discontinuation after day 15.

Consider two compounds from US20090203892A1, “Retrotransposon Inhibition in Therapy” (ISTITUTO SUPERIORE DI SANITA, priority 2004, published 2009).

For the compound `O=C1Nc2ccc(Cl)cc2[C@@](C#CC2CC2)(C(F)(F)F)O1` [efavirenz, Efavirenz], the “inoculated animals developing xenografts” value in series [1] (cells pretreated with 20 μM efavirenz for two 96 h-cycles, no treatment in vivo, 100% using untreated cells, 30 days) is listed as 65 % of the inoculated animals. Besides, the xenograft growth result is “xenografts grew more slowly” in series [1] (efavirenz-pretreated cells, no treatment in vivo); “the growth curve was flat” in series [1] (pretreated cells and further treated with efavirenz in vivo). Besides, in series [1] (pretreated cells and further treated with efavirenz in vivo, 30 days), the “animals developing a tumor” value is 40 % of the animals. Moreover, in the series on endogenous RT, the “inhibition of the enzymatic activity of the endogenous RT” value is on record as “inhibit the enzymatic activity of the endogenous RT”. Besides, the morphological differentiation result with A-375 melanoma cells was “became evident within four-five days”. Further, the “reversibility of growth inhibition” value (with A-375 melanoma; in [2]; with PC3 prostate carcinoma) was “reversible” throughout. Further, the cell growth result (in the series on A-375 melanoma; in series [2]; in the series with PC3 prostate carcinoma) was “effectively reduce cell growth” throughout. Moreover, the “in vivo effectiveness relative to nevirapine” value in [3] is on record as “higher in vivo effectiveness than nevirapine”. Moreover, the “expression of the cyclin D1 gene” value in series [4] was “failed to down-regulate cyclin D1 expression”. Also, the “animal death or signs of toxicity” value in series [5] (4 to 40 mg/kg, all animal groups) is “no animal death or explicit signs of toxicity in any of the groups”. For the same compound, the “animals with significant decrease of body weight” value in [5] (group treated with 40 mg/kg) was “more than 60 % of animals”. The tumor growth entry (in the series with PC3 xenograft (setting [7]); in the series on HT29 colon xenograft (setting [7]); in series [6]; in the series on A-375 melanoma xenograft) was “markedly reduced” throughout. Besides, the “reversibility of inhibition of tumor growth” value with PC3 xenograft (setting [8]) and in the series on HT29 colon xenograft (setting [8]) was “reversible in vivo” in each case.

Consider `Cc1ccnc2c1NC(=O)c1cccnc1N2C1CC1` [nevirapine, Nevirapine], for which the “inhibition of the enzymatic activity of the endogenous RT” value in the series on endogenous RT is “inhibit the enzymatic activity of the endogenous RT”. Moreover, the morphological differentiation result is “formed instead typical branched dendrites” with primary TVM-A12 cells and “became evident within four-five days” in the series on A-375 melanoma cells. Besides, the “reversibility of growth inhibition” value (with A-375 melanoma; in series [2]; in the series on PC3 prostate carcinoma) was “reversible” each time. Besides, the cell growth result (in the series on A-375 melanoma; in series [2]; in the series with PC3 prostate carcinoma) was “effectively reduce cell growth” throughout.
